Data set [1] can be described thus: Solubility and dissolution rate in solvents. It is filed as physicochemical. The note with it: in most solvents.
Data set [2] is described as follows: Stability of the acetone solvate crystal form at ambient conditions. It is filed as physicochemical. The note with it: co-crystallized acetone solvent is volatile at ambient conditions.

As for fipronil [crystalline modification IV], in data set [1], the dissolution rate entry is “remarkable high” and the solubility result is “remarkable high”. In data set [2], the “stability of the crystalline modification” value is “remarkable stability”.
